Laboratory results from ChEMBL document CHEMBL3259527, “Synthesis and molecular docking studies of potent α-glucosidase inhibitors based on biscoumarin skeleton” (Eur J Med Chem, 2014).
Values belong to the compound of their own block, whether it stands above or below them.

Tests used:
[1] = Inhibition of rat intestinal alpha-glucosidase using p-nitrophenyl-alpha-D-glucopyranoside assessed as release of p-nitrophenol after 5 mins by spectrophotometric analysis
[2] = organism: Rattus norvegicus; assay: Ratio of acarbose IC50 to compound IC50 for rat intestinal alpha-glucosidase using p-nitrophenyl-alpha-D-glucopyranoside assessed as release of p-nitrophenol after 5 mins by spectrophotometric analysis

SMILES: CSc1ccc(C(c2c(O)c3cc(C)ccc3oc2=O)c2c(O)c3cc(C)ccc3oc2=O)cc1
IC50 [1]: 37.4 µM

SMILES: Cc1ccc2oc(=O)c(C(c3ccccc3[N+](=O)[O-])c3c(O)c4cc(C)ccc4oc3=O)c(O)c2c1
IC50 [1]: 129 µM

SMILES: COc1cc(C(c2c(O)c3cc(Cl)ccc3oc2=O)c2c(O)c3cc(Cl)ccc3oc2=O)cc(OC)c1OC
IC50 [1]: 128 µM

SMILES: O=c1oc2ccc(Cl)cc2c(O)c1C(c1cccc([N+](=O)[O-])c1)c1c(O)c2cc(Cl)ccc2oc1=O
Ratio IC50 [2]: 33
IC50 [1]: 27.1 µM

SMILES: Cc1ccc2oc(=O)c(C(c3cccc([N+](=O)[O-])c3)c3c(O)c4cc(C)ccc4oc3=O)c(O)c2c1
IC50 [1]: 68 µM

SMILES: COc1cc(C(c2c(O)c3cc(Cl)ccc3oc2=O)c2c(O)c3cc(Cl)ccc3oc2=O)ccc1O
IC50 [1]: 113 µM

SMILES: COc1ccc(C(c2c(O)c3cc(Cl)ccc3oc2=O)c2c(O)c3cc(Cl)ccc3oc2=O)cc1
IC50 [1]: 75.7 µM

SMILES: O=c1oc2ccc(Cl)cc2c(O)c1C(c1ccccc1[N+](=O)[O-])c1c(O)c2cc(Cl)ccc2oc1=O
IC50 [1]: 80.9 µM

SMILES: O=c1oc2ccc(Cl)cc2c(O)c1C(c1cccc(O)c1)c1c(O)c2cc(Cl)ccc2oc1=O
IC50 [1]: 84.1 µM

SMILES: Cc1ccc2oc(=O)c(C(c3cccc(O)c3)c3c(O)c4cc(C)ccc4oc3=O)c(O)c2c1
IC50 [1]: 52.6 µM

SMILES: CCOc1cc(C(c2c(O)c3cc(C)ccc3oc2=O)c2c(O)c3cc(C)ccc3oc2=O)ccc1O
IC50 [1]: 222 µM

SMILES: COc1ccc(C(c2c(O)c3cc(Cl)ccc3oc2=O)c2c(O)c3cc(Cl)ccc3oc2=O)cc1OC
IC50 [1]: 91.4 µM

SMILES: O=c1oc2ccc(Cl)cc2c(O)c1C(c1ccc(Cl)cc1Cl)c1c(O)c2cc(Cl)ccc2oc1=O
Ratio IC50 [2]: 54
IC50 [1]: 16.5 µM

SMILES: Cc1ccc2oc(=O)c(C(c3ccc([N+](=O)[O-])cc3)c3c(O)c4cc(C)ccc4oc3=O)c(O)c2c1
IC50 [1]: 79.2 µM

SMILES: COc1cc(C(c2c(O)c3cc(C)ccc3oc2=O)c2c(O)c3cc(C)ccc3oc2=O)cc(OC)c1OC
IC50 [1]: 386 µM

SMILES: COc1ccc(C(c2c(O)c3cc(Cl)ccc3oc2=O)c2c(O)c3cc(Cl)ccc3oc2=O)cc1O
IC50 [1]: 83.6 µM

IC50 [1]: 906 µM
SMILES: C[C@H]1O[C@H](O[C@H]2[C@H](O)[C@@H](O)[C@@H](O[C@H]3[C@H](O)[C@@H](O)C(O)O[C@@H]3CO)O[C@@H]2CO)[C@H](O)[C@@H](O)[C@@H]1N[C@H]1C=C(CO)[C@@H](O)[C@H](O)[C@H]1O (stereo partly specified) [ACARBOSE]

SMILES: COc1ccc(C(c2c(O)c3cc(C)ccc3oc2=O)c2c(O)c3cc(C)ccc3oc2=O)cc1
IC50 [1]: 107 µM

SMILES: CCOc1cc(C(c2c(O)c3cc(Cl)ccc3oc2=O)c2c(O)c3cc(Cl)ccc3oc2=O)ccc1O
IC50 [1]: 57.1 µM
